Measurements taken from patent US9278963B2, “Pyrimidine hydroxy amide compounds as histone deacetylase inhibitors” (Acetylon Pharmaceuticals, Inc., priority 2013, dated 2016).
pIC50: −log10 of the molar value.

What was measured:
HDAC1 = HDAC1 (Homo sapiens (Human), UniProt Q13547); assay: HDAC enzyme assay, HDAC1; assay type: biochemical
Description: (§1) Compounds for testing were diluted in DMSO to 50 fold the final concentration and a ten point three fold dilution series was made. The compounds were diluted in assay buffer (50 mM HEPES, pH 7.4, 100 mM KCl, 0.001% Tween-20, 0.05% BSA, 20 μM TCEP) to 6 fold their final concentration. The HDAC enzymes (purchased from BPS Biosciences) were diluted to 1.5 fold their final concentration in assay buffer. The tripeptide substrate and trypsin at 0.05 μM final concentration were diluted in assay buffer at 6 fold their final concentration. The final enzyme concentrations used in these assays were 3.3 ng/ml (HDAC1), 0.2 ng/ml (HDAC2), 0.08 ng/ml (HDAC3) and 2 ng/ml (HDAC6). The final substrate concentrations used were 16 μM (HDAC1), 10 μM (HDAC2), 17 μM (HDAC3) and 14 μM (HDAC6).
(§2) Five μl of compounds and 20 μl of enzyme were added to wells of a black, opaque 384 well plate in duplicate. Enzyme and compound were incubated together at room temperature for 10 minutes. Five μ1 of substrate was added to each well, the plate was shaken for 60 seconds and placed into a Victor 2 microtiter plate reader. The development of fluorescence was monitored for 60 min and the linear rate of the reaction was calculated. The IC50 was determined using Graph Pad Prism by a four parameter curve fit.

HDAC3 = HDAC3 (Homo sapiens (Human), UniProt O15379); assay: HDAC enzyme assay, HDAC3; assay type: biochemical
Description: as §1, with “The HDAC enzymes (purchased from BPS Biosciences) were diluted to 1.5 fold their final concentration in assay buffer.” left out, “(HDAC6).” for “(HDAC6). The final substrate concentrations used were 16 μM (HDAC1), 10 μM (HDAC2), 17 μM (HDAC3) and 14 μM (HDAC6).”
as §2

HDAC6 = HDAC6 (Homo sapiens (Human), UniProt Q9UBN7); assay: HDAC enzyme assay, HDAC6; assay type: biochemical
Description: as §1
as §2, with “fit. The IC50 values obtained for several of the compounds of this invention are found in Table 1.” for “fit.”

[1] = system: human erythroid, myeloid and megakaryocyte hematopoietic progenitors; assay: Hematopoietic progenitor proliferation (colony) assay; assay type: cell-based; conditions: compared with MS-275; 14-16 days in culture
Description: This study evaluated the potential effect of test compounds on human erythroid, myeloid and megakaryocyte hematopoietic progenitor proliferation in media formulations containing various cytokines. Normal human bone marrow light density cells derived from a normal bone marrow donor (Lonza, Md.) were used for these studies. Clonogenic progenitors of human erythroid (CFU-E, BFU-E) and granulocyte-monocyte (CFU-GM) lineages were assessed in a semi-solid methylcellulose-based media formulation containing rhIL-3 (10 ng/mL), rhGM-SCF (10 ng/mL), rhSCF (50 ng/mL) and Epo (3 U/mL). Clonogenic progenitors of human megakaryocyte lineage were assessed in a semi-solid collagen based matrix containing rhIL-3 (10 ng/mL), rhIL-6 (10 ng/mL) and rhTpo (50 ng/mL).
Compounds were added to the medium to give the final desired concentrations. […] Following 14-16 days in culture, myeloid and erythroid colonies were assessed microscopically and scored by trained personnel. […] The colonies were assessed and scored by trained personnel and divided into the following categories based on size; CFU-Mk (3-20), CFU-Mk (21-49) and CFU-Mk (≧50).
The mean±1 standard deviation of three replicate cultures was calculated for progenitors in both media formulations. […] A sigmoidal curve was then fit to the graph and from this curve the inhibitory concentration (μM) was then calculated using the Boltzman equation […]

[2] = system: BE(2)-C neuroblastoma cells; assay: Neuroblastoma maturation gene expression, BE(2)-C; assay type: cell-based
Description: (§3) The following is a quick summary of the HDAC neuroblastoma maturation experiments. Adherent cells were plated into 12- or 24-well plates at 10^6 cells/well and allowed to adhere for 2-4 hours. Compounds were dispensed in DMSO at the indicated concentrations using an automated liquid handling system (Tecan D300) and incubated for the indicated times at 37° C. with 5% CO2. Cells were harvested and RNA extracted using the Qiagen RNeasy Mini Kit according to manufacture protocols. The RNA was quantified and relative expression levels were assessed using the Applied Biosystems TaqMan RNA-to-Ct Kit according to manufacture protocols using the indicated TaqMan probes.
(§4) The protocol for the maturation experiments was as follows. The day before the experiment, the cells were fed in the flask by doubling the media. The cells were then harvested by adding non-enzymatic cell dissociation media and incubating at 37° C. for 15 minutes. The cells were transferred to a 50 ml tube and pipet to create a single-cell suspension. The cells were washed with PBS buffer. The cells were then resuspended in complete media at 5×10^5 cells per ml. Next, 2 ml of cells were transferred to 24- or 12-well plates. The treatment compounds were then dispensed into each well using the D300 liquid handler. The cells were then incubated for the indicated time at 37° C. The cells were harvested by scraping the cells and transferring to a 2 ml tube. The cells were spun to form a pellet. Next, RNA was extracted using the Qiagen RNeasy Mini kit according to manufacture protocols. The RNA concentration was recorded. The relative RNA levels were assessed using the Applied Biosystems TaqMan RNA-to-Ct kit according to manufacture protocols using the indicated Taqman probes.

[3] = system: SH-SY5Y neuroblastoma cells; assay: Neuroblastoma maturation gene expression, SH-SY5Y; assay type: cell-based; conditions: 2 days, 3 μM
Description: as §3
as §4, with “The treatment compounds were then dispensed into each well using the D300 liquid handler. The cells were then incubated for the indicated time at 37° C. The cells were harvested by scraping the cells and transferring to a 2 ml tube. The cells were spun to form a pellet. Next, RNA was extracted using the Qiagen RNeasy Mini kit according to manufacture protocols.” left out

HDAC2 = HDAC2 (Homo sapiens (Human), UniProt Q92769); assay: HDAC2glo assay; assay type: cell-based
Sequence of HDAC2 (Q92769 whole entry): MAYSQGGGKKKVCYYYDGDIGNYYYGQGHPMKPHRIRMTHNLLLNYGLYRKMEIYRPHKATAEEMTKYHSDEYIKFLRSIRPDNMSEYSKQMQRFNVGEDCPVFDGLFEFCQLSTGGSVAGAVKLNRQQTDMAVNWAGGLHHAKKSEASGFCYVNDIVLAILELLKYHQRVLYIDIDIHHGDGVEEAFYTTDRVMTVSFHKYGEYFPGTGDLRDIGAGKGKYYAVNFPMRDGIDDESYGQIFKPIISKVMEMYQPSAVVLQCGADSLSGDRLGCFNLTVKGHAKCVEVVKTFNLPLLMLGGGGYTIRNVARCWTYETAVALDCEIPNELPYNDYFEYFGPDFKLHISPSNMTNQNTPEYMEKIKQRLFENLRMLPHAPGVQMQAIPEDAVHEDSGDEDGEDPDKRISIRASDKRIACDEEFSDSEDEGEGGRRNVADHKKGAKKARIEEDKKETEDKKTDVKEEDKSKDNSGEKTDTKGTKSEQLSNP

Sequence of HDAC1 (Q13547 whole entry): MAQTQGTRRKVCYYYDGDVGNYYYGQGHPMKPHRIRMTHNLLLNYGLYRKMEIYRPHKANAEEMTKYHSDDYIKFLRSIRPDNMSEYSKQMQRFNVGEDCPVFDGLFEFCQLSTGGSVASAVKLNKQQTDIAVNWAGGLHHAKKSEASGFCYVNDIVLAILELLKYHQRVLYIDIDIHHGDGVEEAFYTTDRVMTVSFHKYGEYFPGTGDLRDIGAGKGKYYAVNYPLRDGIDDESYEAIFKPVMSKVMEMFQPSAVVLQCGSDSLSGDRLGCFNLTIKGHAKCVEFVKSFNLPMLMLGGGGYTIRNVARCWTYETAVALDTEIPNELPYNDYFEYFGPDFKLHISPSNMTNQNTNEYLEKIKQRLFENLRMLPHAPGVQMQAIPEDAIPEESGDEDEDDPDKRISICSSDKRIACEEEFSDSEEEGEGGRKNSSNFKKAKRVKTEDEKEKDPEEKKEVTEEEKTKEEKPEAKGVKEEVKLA
Sequence of HDAC3 (O15379 whole entry): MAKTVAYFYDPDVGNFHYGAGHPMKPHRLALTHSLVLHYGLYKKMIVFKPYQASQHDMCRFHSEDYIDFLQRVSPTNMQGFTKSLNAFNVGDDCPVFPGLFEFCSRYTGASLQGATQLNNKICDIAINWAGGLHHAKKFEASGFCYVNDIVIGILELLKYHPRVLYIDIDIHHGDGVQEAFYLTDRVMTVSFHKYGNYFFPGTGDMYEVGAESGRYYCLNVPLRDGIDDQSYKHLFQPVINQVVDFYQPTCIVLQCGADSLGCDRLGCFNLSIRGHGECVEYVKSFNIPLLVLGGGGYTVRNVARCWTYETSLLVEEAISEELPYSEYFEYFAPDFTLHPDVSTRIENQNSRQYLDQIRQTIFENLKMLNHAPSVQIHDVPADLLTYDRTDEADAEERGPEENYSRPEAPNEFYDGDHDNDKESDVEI
Sequence of HDAC3 (Q9Y618 395-489 partner): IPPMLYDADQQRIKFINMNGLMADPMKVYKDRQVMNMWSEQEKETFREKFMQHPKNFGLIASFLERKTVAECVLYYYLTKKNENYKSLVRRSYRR
Sequence of HDAC6 (Q9UBN7 whole entry): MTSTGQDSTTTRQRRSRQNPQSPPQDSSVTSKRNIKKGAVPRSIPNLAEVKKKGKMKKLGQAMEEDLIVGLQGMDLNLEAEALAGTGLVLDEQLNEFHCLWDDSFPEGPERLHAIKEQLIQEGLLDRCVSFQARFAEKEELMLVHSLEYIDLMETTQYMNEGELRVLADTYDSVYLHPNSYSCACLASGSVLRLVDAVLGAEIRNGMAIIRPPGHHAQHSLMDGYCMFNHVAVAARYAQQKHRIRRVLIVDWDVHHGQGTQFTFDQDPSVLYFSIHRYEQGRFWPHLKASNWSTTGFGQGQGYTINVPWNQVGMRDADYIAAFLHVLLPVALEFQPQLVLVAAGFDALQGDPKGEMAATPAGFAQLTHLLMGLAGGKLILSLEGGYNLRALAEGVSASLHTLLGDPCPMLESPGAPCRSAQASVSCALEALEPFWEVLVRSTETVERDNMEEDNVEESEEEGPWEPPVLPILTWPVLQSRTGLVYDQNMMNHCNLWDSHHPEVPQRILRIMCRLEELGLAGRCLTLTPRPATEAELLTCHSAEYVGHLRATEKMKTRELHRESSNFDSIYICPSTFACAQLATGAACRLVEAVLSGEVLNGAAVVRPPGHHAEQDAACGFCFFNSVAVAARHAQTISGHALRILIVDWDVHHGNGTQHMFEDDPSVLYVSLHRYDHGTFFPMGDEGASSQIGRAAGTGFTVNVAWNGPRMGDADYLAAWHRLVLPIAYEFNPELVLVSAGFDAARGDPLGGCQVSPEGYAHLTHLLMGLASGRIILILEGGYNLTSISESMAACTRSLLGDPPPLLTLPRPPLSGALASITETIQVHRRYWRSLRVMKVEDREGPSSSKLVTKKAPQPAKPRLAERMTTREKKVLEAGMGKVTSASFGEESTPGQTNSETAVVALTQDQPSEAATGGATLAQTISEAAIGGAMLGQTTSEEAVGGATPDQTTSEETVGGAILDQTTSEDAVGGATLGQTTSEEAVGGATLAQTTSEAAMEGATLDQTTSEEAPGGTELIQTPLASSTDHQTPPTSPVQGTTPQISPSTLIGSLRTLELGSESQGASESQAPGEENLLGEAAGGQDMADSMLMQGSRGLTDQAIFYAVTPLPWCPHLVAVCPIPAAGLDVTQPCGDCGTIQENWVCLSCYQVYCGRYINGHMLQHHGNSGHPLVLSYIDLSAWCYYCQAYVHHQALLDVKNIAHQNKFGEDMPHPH

pIC50 (HDAC1): 7.42
selectivity for HDAC1 and 2 (HDAC1; relative to HDAC3): 30 fold
pIC50 (HDAC3): 6.00
pIC50 (HDAC6): 8.72
concentration at which maximal HDAC2 inhibition was reached (HDAC2): 3 to 4 µM
Structure (SMILES): O=C(NO)c1cnc(NC2(c3ccccc3)CCN(C(=O)Nc3ccccc3)CC2)nc1 [Compound 001, N-hydroxy-2-((4-phenyl-1-(phenylcarbamoyl)piperidin-4-yl)amino)pyrimidine-5-carboxamide]
cytotoxicity against erythroid, myeloid and megakaryocytes [1]: significantly less cytotoxicity
fold change of genes associated with maturation ([2]; 2 days, 3 μM): induces gene expression changes that are consistent with maturation
fold change of genes associated with maturation ([2]; 48 hours, 0.5, 2 and 4 μM): induces gene expression changes consistent with maturation at 4 μM, but not at 2 μM or less
fold change of genes associated with maturation [3]: induces gene expression changes that are consistent with maturation
